Several values for one entry are separate records, joined by “and”; a condition that tells them apart may be missing. Identical values can stand only once. Like-named read-outs stand apart in the source and are kept apart here.
Tests used:
[1] = system: p97-dependent Ub^G76V-GFP degradation in HeLa cells; assay: Ub^G76V-GFP degradation (turn-over) assay; assay type: cell-based, human
Description: Ub^G76V-GFP Degradation Assay
Two GFP images with 100 ms exposure time per well were acquired and the average GFP intensity per area of a HeLa cell was determined by using MetaXpress software. Mean GFP intensity of 300-500 cells was calculated using Excel. Normalized GFP intensity was calculated using the following formula: (Test compound−Background)/(Basal GFP intensity—Background). Where: Test compound is defined as Mean GFP intensity of Ub^G76V-GFP-expressing cells treated with the test compound. Background is defined as background GFP intensity of HeLa cells. Basal GFP intensity is defined as mean GFP intensity of Ub^G76V-GFP-expressing cells treated with DMSO. […] The percent of remaining k for each compound is calculated using the following formula: (Test compound/DMSO control)*100. Where: Test_compound is defined as k determined from wells containing test compound, DMSO control is defined as k determined from wells containing DMSO.

p97 = p97 (Homo sapiens, UniProt P55072); assay: p97 ATPase assay (Kinase Glo Plus; biomol green for compounds that interfere with luciferase); assay type: biochemical
Description: Assay Buffer (20 μL of 2.5× concentration, where 1×=50 mM Tris pH 7.4, 20 mM MgCl2, 1 mM EDTA, 0.5 mM TCEP) was dispensed into each well of a 96 well plate. Purified p97 (25 μL of 50 μM) was diluted in 975 μL, of 1× Assay Buffer and 10 μL was dispensed in each well. Test compound (10 μL) or 5% DMSO (10 μL) was then added to each well and the plate was incubated at room temperature for 10 min. The ATPase assay was carried out by adding to each well 10 μL of 500 μM ATP (pH 7.5), incubating at room temperature for 60 min, and then adding 50 μL Kinase Glo Plus reagent (Promega) followed by a final 10 min incubation at room temperature in the dark. Luminescence was read on an Analyst AD (Molecular Devices). Compounds were assayed at a range of concentrations (0, 0.048, 0.24, 1.2, 6, 30 μM) in triplicate. The percent of remaining activity for each reaction was calculated using the following mathematical expression: ((Test Compound-High Control)/(Low Control-High Control))*100. Test_Compound is defined as wells containing test compound, Low_Control is defined as wells containing DMSO, High_Control is defined as wells containing no p97 protein. […] The result was expressed as mean +/− standard error. For assays with Myriad 12 and 19, 100 μL of biomol green reagent (Enzo Life Sciences) was added to each well instead of kinase Glo Plus (Promega) and absorbance at 630 nm was measured. This was done because these compounds interfered with luciferase activity. […]

[2] = Homo sapiens, HeLa, read-out: IC50 (μM) Ub^G76V-GFP turn over, p97-dependent Ub^G76V-GFP degradation turn-over assay
[3] = purified p97, ATP, 60 min room temperature, mean +/- standard error
[4] = Homo sapiens, HeLa, read-out: IC50 (μM) Ub^G76V-GFP turn over, Ub^G76V-GFP-expressing HeLa cells, degradation rate constant k from 90 to 180 min, mean +/- standard error

Chain of p97 (P55072 2-806 limits assumed): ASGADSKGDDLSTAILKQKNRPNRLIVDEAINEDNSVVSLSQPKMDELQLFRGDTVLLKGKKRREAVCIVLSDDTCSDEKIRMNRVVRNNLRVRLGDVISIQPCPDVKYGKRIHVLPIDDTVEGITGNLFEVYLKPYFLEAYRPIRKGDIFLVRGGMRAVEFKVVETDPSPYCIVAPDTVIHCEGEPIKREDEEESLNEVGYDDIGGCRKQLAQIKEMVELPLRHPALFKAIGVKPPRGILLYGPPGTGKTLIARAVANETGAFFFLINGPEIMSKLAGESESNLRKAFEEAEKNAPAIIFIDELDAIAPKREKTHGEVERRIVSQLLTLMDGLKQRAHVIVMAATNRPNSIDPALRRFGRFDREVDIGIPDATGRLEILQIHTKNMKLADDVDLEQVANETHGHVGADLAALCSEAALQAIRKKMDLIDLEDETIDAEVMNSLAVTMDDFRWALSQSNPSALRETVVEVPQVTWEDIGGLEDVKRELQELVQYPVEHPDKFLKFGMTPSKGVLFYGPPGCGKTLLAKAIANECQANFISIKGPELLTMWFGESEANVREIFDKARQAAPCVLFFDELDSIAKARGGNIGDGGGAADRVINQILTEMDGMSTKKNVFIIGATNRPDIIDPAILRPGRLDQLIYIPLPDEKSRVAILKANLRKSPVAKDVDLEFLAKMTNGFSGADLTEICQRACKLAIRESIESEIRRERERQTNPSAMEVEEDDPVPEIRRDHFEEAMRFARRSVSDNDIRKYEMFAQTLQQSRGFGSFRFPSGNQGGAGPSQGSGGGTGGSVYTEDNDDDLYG

Structure (SMILES): Cc1cc(OCC(=O)OCC(=O)C(C#N)=C2Nc3ccccc3N2)ccc1Cl [XXXVIII]
- IC50 [1, 2]: 16 ± 1.4 µM

Structure (SMILES): COc1ccc(Nc2nc(Nc3ccc(OC)cc3)c3ccccc3n2)cc1 [XXV-1]
- IC50 (p97; p97 ATPase assay): 22 ± 4 µM
- IC50 ([1]; Homo sapiens, HeLa, read-out: IC50 (μM) Ub^G76V-GFP turn over): 23 ± 3 µM

Structure (SMILES): COc1cccc2c(NCc3ccccc3)nc(N3CCOCC3)nc12 [XI-2]
- IC50 (p97; p97 ATPase assay): 31 ± 7 µM
- IC50 [1, 2]: 47 ± 9 µM

Structure (SMILES): Cc1ccc(-c2nc(NCc3ccccc3)c3ccccc3n2)cc1 [I-10]
- IC50 (p97; [3]): 5.7 ± 0.7 µM
- IC50 [1, 4]: 13 ± 2 µM

Structure (SMILES): CCCCc1cccc2c(NCc3ccccc3)nc(N3CCOc4ccccc43)nc12 [VII-15]
- IC50 (p97; p97 ATPase assay): 2.63 ± 0.7 µM
- IC50 [1, 2]: 28 ± 3 µM

Structure (SMILES): Cc1ccc(-c2nc(NC(C)c3ccccc3)c3ccccc3n2)cc1 (centres unmarked) [I-30]
- IC50 (p97; [3]): 7 ± 4 µM
- IC50 [1, 4]: 17 ± 4 µM

Structure (SMILES): c1ccc(CNc2nc(N3CCNc4ccccc43)nc3ccccc23)cc1 [VII-4]
- IC50 (p97; [3]): 0.4 ± 0.05 µM
- IC50 [1, 4]: 6.3 ± 1 µM

Structure (SMILES): Fc1ccccc1-c1nc(NCc2ccccc2)c2ccccc2n1 [I-1]
- IC50 (p97; [3]): 1.1 µM and 3 µM
- IC50 [1, 4]: 8 ± 1.7 µM
- IC50 ([1]; read-out: IC50 (μM) Ub^G76V-GFP turn over, Ub^G76V-GFP-expressing HeLa cells, degradation rate constant k from 90 to 180 min, mean +/- standard error): 9 ± 1.3 µM

Structure (SMILES): CN1CCN(c2nc(NCc3ccccc3)c3ccccc3n2)CC1 [XLV]
- IC50 (p97; p97 ATPase assay): 53 ± 18 µM
- IC50 [1, 2]: 31 ± 6 µM

Structure (SMILES): O=[N+]([O-])c1ccc(-c2nc(NCc3ccccc3)c3ccccc3n2)cc1 [I-8]
- IC50 (p97; [3]): 11 ± 6 µM
- IC50 [1, 4]: 19 ± 7 µM

Structure (SMILES): Brc1cccc(CNc2nc(NCc3ccccc3)c3ccccc3n2)c1 [IV-14]
- IC50 [1, 4]: 2.8 ± 0.4 µM

Structure (SMILES): COc1cccc2c(NCc3ccccc3)nc(NCc3cccs3)nc12 [XI-14]
- IC50 [1, 4]: 1.8 ± 0.3 µM

Structure (SMILES): N#Cc1ccc2c(NCc3ccccc3)nc(NCc3ccccc3)nc2c1 [VI-8]
- IC50 (p97; p97 ATPase assay): 25 ± 10 µM
- IC50 [1, 2]: 21 ± 3 µM

Structure (SMILES): COc1cccc2c(NCc3ccccc3)nc(Nc3nc4ccccc4n3C)nc12 [XI-6]
- IC50 (p97; [3]): 0.3 ± 0.07 µM
- IC50 [1, 4]: 7.8 ± 1.2 µM

Structure (SMILES): Clc1ccccc1CNc1nc(-c2ccccc2)nc2ccccc12 [Cpd I-14]
- IC50 [1, 2]: 11 ± 3 µM

Structure (SMILES): Cc1ccc(F)cc1Nc1nc(NCc2ccccc2)c2ccccc2n1 [V-6]
- IC50 (p97; [3]): 0.8 ± 0.1 µM
- IC50 [1, 4]: 5 ± 1 µM

Structure (SMILES): Clc1cccc2nc(NCc3ccccc3)nc(NCc3ccccc3)c12 [VI-1]
- IC50 (p97; [3]): 2.2 ± 0.7 µM
- IC50 [1, 4]: 16 ± 2 µM

Structure (SMILES): COc1cccc2c(NCc3cncs3)nc(N3CCOc4ccccc43)nc12 [XII-1]
- IC50 (p97; p97 ATPase assay): 38 ± 7 µM
- IC50 [1, 2]: 20 ± 3 µM

Structure (SMILES): COc1cccc2c(N3CCOc4ccccc43)nc(N3CCOc4ccccc43)nc12 [XII-11]
- IC50 (p97; p97 ATPase assay): > 30 µM
- IC50 [1, 2]: 8.1 ± 1.8 µM

Structure (SMILES): c1ccc(CNc2nc(N3CCOCC3)nc3ccccc23)cc1 [XLIV]
- IC50 [1, 2]: 36 ± 9 µM

Structure (SMILES): COc1ccc(CNc2nc(NCc3ccccc3)c3ccccc3n2)cc1 [IV-5]
- IC50 (p97; [3]): 3 ± 0.5 µM
- IC50 [1, 4]: 1.3 ± 0.2 µM

Structure (SMILES): Brc1ccccc1CNc1nc(NCc2ccccc2)c2ccccc2n1 [IV-9]
- IC50 (p97; [3]): 2 ± 0.3 µM
- IC50 [1, 4]: 3.8 ± 0.7 µM

Structure (SMILES): Clc1cccc(CNc2nc(-c3ccccc3)nc3ccccc23)c1 [Cpd I-12]
- IC50 (p97; p97 ATPase assay): 28 ± 9 µM
- IC50 [1, 2]: 17 ± 4 µM

Structure (SMILES): Ic1cccc(Nc2nc(NCc3ccccc3)c3ccccc3n2)c1 [II-21]
- IC50 (p97; [3]): 5.2 ± 1.9 µM
- IC50 [1, 4]: 36 ± 4 µM

Structure (SMILES): OCCOc1cccc2c(NCc3ccccc3)nc(N3CCOc4ccccc43)nc12 [VII-9]
- IC50 (p97; [3]): 0.17 ± 0.05 µM
- IC50 [1, 4]: 3.8 ± 0.8 µM

Structure (SMILES): c1ccc(CNc2nc(N3CCOc4ccccc43)nc3ccsc23)cc1 [IX]
- IC50 (p97; [3]): 0.4 ± 0.1 µM
- IC50 [1, 4]: 6.4 ± 1 µM

Structure (SMILES): CC(Nc1nc(-c2ccccc2F)nc2ccccc12)c1ccccc1 (centres unmarked) [Cpd I-31]
- IC50 (p97; p97 ATPase assay): > 30 µM
- IC50 [1, 2]: 15 ± 4 µM

Structure (SMILES): Fc1ccccc1CNc1nc(Nc2cccc(Cl)c2)nc2ccccc12 [III-8]
- IC50 (p97; [3]): 1.8 ± 0.5 µM
- IC50 [1, 4]: 7.8 ± 2.1 µM

Structure (SMILES): N#CC(C(=O)COC(=O)COc1cccc(Br)c1)=C1Nc2ccccc2N1 [XXXIV]
- IC50 [1, 2]: 5.9 ± 0.8 µM

Structure (SMILES): COc1cccc2c(NCc3ccccc3)nc(N3CCNc4ccccc43)nc12 [VII-5]
- IC50 (p97; [3]): 0.9 ± 0.1 µM
- IC50 [1, 4]: 3.7 ± 0.2 µM

Structure (SMILES): Cc1nc(N2CCOc3ccccc32)nc(NCc2ccccc2)c1C [X]
- IC50 (p97; [3]): 1.1 ± 0.2 µM
- IC50 [1, 4]: 10 ± 1 µM

Structure (SMILES): COc1cccc2c(NCc3ccccc3)nc(N3CCN(C)c4ccccc43)nc12 [VII-12]
- IC50 (p97; [3]): 3.1 ± 0.5 µM
- IC50 [1, 4]: 7.8 ± 0.7 µM

Structure (SMILES): CCc1nc2ccccc2n1CC(=O)OCC(=O)C(C#N)=C1Nc2ccccc2N1 [XIX]
- IC50 (p97; [3]): 14 ± 6 µM
- IC50 [1, 4]: 7.2 ± 1.1 µM

Structure (SMILES): Clc1ccccc1CNc1nc(NCc2ccccc2)c2ccccc2n1 [IV-7]
- IC50 (p97; [3]): 5.3 ± 1.2 µM
- IC50 [1, 4]: 2.9 ± 0.9 µM

Structure (SMILES): Clc1cccc(Nc2nc(NCc3ccccc3Br)c3ccccc3n2)c1 [III-9]
- IC50 (p97; [3]): 4 ± 1.7 µM
- IC50 [1, 4]: 12 ± 5 µM
